This is an account of results in patent US20070066616A1, “Inhibitors for extracellular signal-regulated kinase docking domains and uses therefor” (priority 2005, published 2007).

What all share (assay type): cell-based, human
In assay [1] the test system is A549 lung carcinoma cells. In words: Colony formation assay, A549 cells. The following applies: colony formation dose response (FIG. 7C). As to the method:
HeLa, A549, or SUM-159 cells were plated at a low density of ˜200-400 cells per well in the absence or presence of putative ERK docking domain inhibitors. Cell colonies were stained with crystal violet and counted after 6-10 days. In FIG. 7A cells were grown on 10 cm plates in the absence (−) or presence of 100 mM of compound 67, 36, 68, 81, or 76. Colony formation dose response in the presence of the indicated concentrations of compound 76 or 81 for Hela cells (100 mM) (FIG. 7B), A549 cells (50 mM) (FIG. 7C), or SUM-159 cells (50 mM) (FIG. 7D).
Trypsinized cells were plated on 12 or 24 well plates at low densities (200-400 cells per well) in the absence (DMSO only) or presence of test compounds. In additional experiments, cells were first allowed to adhere to the culture dishes for 16 hours prior to treatment with test compounds. The treated cells received a single dose of the test compounds at the beginning of the experiments. The control and treated cells were grown for 8-14 days to allow the formation of colonies. Cells then were fixed for 10 minutes in 4% paraformaldehyde and stained with 0.2% crystal violet (in 20% methanol) for 1-2 minutes. Following several washes with distilled water, the colonies (containing at least 40 cells) were counted. Each individual experiment was repeated on at least 3 separate occasions.

The test system of assay [2] is ERK-mediated phosphorylation of Elk-1 on S383. Put plainly: ERK-mediated Elk-1 phosphorylation (Ser383), immunoblot in EGF-stimulated HeLa cells. As to the method: Prior to harvesting, cells were pre-incubated with the test compounds for 15-20 minutes and then stimulated with EGF or anisomycin to activate the ERK or p38 MAP kinase pathways, respectively. […] The lysates then were diluted with an equal volume of 2X SDS-sample buffer and the proteins were separated on SDS-PAGE for immunoblot analysis. Immunoblot analysis was done as previously described (41-43).
Cells were treated with EGF to activate the ERK pathway and phosphorylation of Elk-1 on the ERK site at S383 was detected by immunoblot analysis (FIG. 5C). […] The effects of the test compounds were also tested with Rsk-1, another ERK substrate involved in regulating cell proliferation.

Assay [3] relates to ERK-mediated phosphorylation of Rsk-1 on Thr573. In words: ERK-mediated Rsk-1 phosphorylation (Thr573), immunoblot and densitometry in EGF-stimulated HeLa cells. The following applies: immunoblot. As to the method: Prior to harvesting, cells were pre-incubated with the test compounds for 15-20 minutes and then stimulated with EGF or anisomycin to activate the ERK or p38 MAP kinase pathways, respectively. Control and treated cells were washed twice with cold phosphate buffered saline (PBS, pH 7.2; Invitrogen) and proteins were collected following cell lysis with 300 μl of cold tissue lysis buffer (20 mM Tris, pH 7.4, 137 mM NaCl, 2 mM EDTA, 1% Triton X-100, 0.1% SDS, 25 mM β-glycerophosphate, 2 mM sodium pyrophosphate, 10% glycerol, 1 mM sodium orthovanadate, 1 mM phenylmethylsulfonyl fluoride (PMSF), 1 mM benzamidine), allowed to incubate on ice for about 10 minutes and then centrifuged at 20,000 (X g) to clarify the lysates of insoluble material. The lysates then were diluted with an equal volume of 2X SDS-sample buffer and the proteins were separated on SDS-PAGE for immunoblot analysis. Immunoblot analysis was done as previously described (41-43).
All compounds were subjected to assays of ERK specific phosphorylation of Rsk-1 and/or Elk-1 as examined by immunoblot analysis using phosphorylation specific antibodies. In FIG. 5A HeLa cells were cultured in 24 well plates and pretreated for 20-30 minutes with […] of the selected test compounds. The cells were stimulated with epidermal growth factor (EGF, 50 ng/ml) for 5 minutes to activate the ERK pathway. Cell lysates were collected and immunoblotted for ERK-mediated phosphorylation of Rsk-1 on Thr573. As shown, EGF treatment alone caused a robust increase in Thr573 phosphorylation on Rsk-1 in the absence of test compounds. The presence of test compounds had inhibitory effects on ERK-mediated Rsk-1 phosphorylation.
Compounds 86-98 were first tested for inhibition of ERK mediated phosphorylation of the transcription factor Elk-1, which is an important regulator of cell proliferation. Cells were treated with EGF to activate the ERK pathway and phosphorylation of Elk-1 on the ERK site at S383 was detected by immunoblot analysis (FIG. 5C). […] The effects of the test compounds were also tested with Rsk-1, another ERK substrate involved in regulating cell proliferation.
Background: A western blot detects proteins with antibodies after separation by electrophoresis.

Assay [4] has as its system ERK1/2 phosphorylation by MEK1/2. In words: ERK1/2 phosphorylation on activating sites (upstream MEK1/2), immunoblot. The following applies: HeLa cells, EGF stimulated. As to the method: HeLa cells were pretreated with or without 100 μM of test compounds for 5 min (FIGS. 5A-5B) or 15 min (FIGS. 5C-5E) prior to the addition of epidermal growth factor (EGF or E) to stimulate the ERK pathway or anisomycin (A) to stimulate p38 MAP kinase. In FIGS. 5A-5B HeLa cells were treated with EGF for 5 minutes. […] The far left lane is the control (−) with no EGF. […] The control (C) is EGF only treatment. In FIG. 5B cells pretreated with increasing concentrations of compound 76 were stimulated with EGF. ELK-1 phosphorylation on Ser383 (pELK-1) was measured by immunoblotting. The expression of dually phosphorylated ERK1/2 (ppERK1/2) and a-tubulin as a loading control are also shown. […] The pElk-1 phosphorylation in the presence of the test compounds was compared to the EGF only treatment, which was set at 100%. […] The pRsk-1 phosphorylation in the presence of the test compounds was compared to the EGF only treatment, which was set at 100%. […] The pATF2 phosphorylation in the presence of the test compounds was compared to the anisomycin (A) only treatment, which was set at 100%. The data were reproduced in at least 3 independent experiments.
Prior to harvesting, cells were pre-incubated with the test compounds for 15-20 minutes and then stimulated with EGF or anisomycin to activate the ERK or p38 MAP kinase pathways, respectively. […]

`CCOc1ccc(C=C2SC(=O)N(CCN)C2=O)cc1` [Compound 76] had an IC50 in assay [1] of around 25 µM. Further, the “effect on ERK-mediated Elk-1 phosphorylation (in words)” value in assay [2] is “inhibited”. In assay [3], the “effect on ERK-mediated Rsk-1 phosphorylation (in words)” value is reported as “highest inhibition”. Besides, the “effect on ERK1/2 phosphorylation on activating sites” value in assay [4] is “largely unaffected”.

As a reminder, the IC50 is the concentration at which inhibition is half-maximal. Low values mean higher potency, high ones lower potency.
